Source: patent US20070021357A1, “Treatment of inflammatory conditions” (Dynamis Therapeutics, Inc., priority 2005, published 2007)
Several values for one entry are separate records, joined by “and”; a condition that tells them apart may be missing. Identical values can stand only once.

Legend:
[1] = biological target: T1, Calf skin collagen Type I (Bos taurus, UniProt P02453+P02465); experiment: 3DG-induced collagen crosslinking, CNBr digestion and SDS-PAGE; type: biochemical; settings: 37° C., 24 hours
T1 construct: Calf skin collagen Type I (1.3 mg; Sigma); purchased Sigma; host or cells: calf skin
Experimental: Collagen type I was treated with 3DG in the presence or absence of arginine. The samples were subjected to cyanogen bromide (CNBr) digestion, electrophoresed on a 16.5% SDS Tris-tricine gel, and then the gels were processed using silver stain techniques to visualize the proteins. Lane 1 contains molecular weight marker standards. Lanes 2 and 5 contain 10 and 20 μl of the collagen mixture following CNBr digestion. Lanes 3 and 6 contain the collagen mixture treated with 3DG and then digested with CNBr, and loaded at 10 and 20 μl, respectively. Lanes 4 and 7 contain the mixture of collagen incubated with 5 mM 3DG and 10 mM arginine and then digested with CNBr, and loaded at 10 and 20 μl, respectively.
Collagen I was incubated in the presence or absence of 3DG in vitro. Calf skin collagen Type I (1.3 mg; Sigma) was incubated in 20 mM Na-phosphate buffer, pH 7.25, either alone, with 5 mM 3DG, or with 5 mM 3DG plus 10 mM arginine, in a total volume of 1 ml at 37° C. for 24 hours and then frozen and lyophilized. The residue was dissolved in 0.5 ml of 70% formic acid and cyanogen bromide was added (20:1, w/w). This solution was incubated at 30° C. for 18 hours. […] The extent of collagen crosslinking was determined by applying equal volumes of sample and analyzing by SDS-PAGE electrophoresis (16.5% Tris-tricine gel), as determined by the effects of 3DG on the migration of collagen.

3DG [2] = experiment: Plasma 3DG levels in diabetic and non-diabetic rats; type: in vivo; settings: 50 mg/kg body weight injections in saline, within one week
Experimental: A cohort of twelve diabetic rats was divided into two groups of six. The first group received saline-only injections, and the second received injections of 3-O-methyl sorbitollysine (50 mg/kg body weight) in saline solution. The same procedure was conducted on a cohort of twelve non-diabetic rats.

[3] = Locus of 3-O-methyl sorbitollysine uptake in vivo (tissues, urine, plasma); design: species or system rats
Experimental: […] Urine was collected for 3 hours, after which the rats were sacrificed. The tissues to be analyzed were removed and freeze clamped in liquid nitrogen. Perchloric acid extracts of the tissues were used for metabolite analysis. The tissues examined were taken from the brain, heart, muscle, sciatic nerve, spleen, pancreas, liver, and kidney. Plasma was also analyzed.

STZ-diabetic rats = experiment: Skin elasticity measurement (vacuum pull) in STZ-diabetic and normal rats; type: in vivo; settings: 50 mg/kg daily, eight weeks, p=0.39
Experimental: Experiments were performed to determine the effects of DYN 12 on the loss of skin elasticity associated with diabetes. To this end, two groups of STZ-diabetic rats and two groups of normal rats were subjected to treatment with DYN 12 or saline. One group of STZ-diabetic rats (n=9) received daily subcutaneous injections of DYN 12 at 50 mg/kg for eight weeks, as did one group of normal rats (n=6). A group of control diabetic rats (n=10) and a group of normal rats (n=6) received saline instead of DYN 12. One rat was removed from the diabetic DYN 12 group after 2 weeks because its blood glucose readings were inconsistent (too low) with other diabetic rats.
A non-invasive procedure based on CyberDERM, Inc. technology utilizing a skin elasticity measurement device was used to test the effects of DYN 12 treatment on skin elasticity. The procedure provides for non-invasive measurement of skin elasticity based upon the amount of vacuum pull required to displace skin. A suction cup probe is adhered to an area of shaved skin in order to form an airtight seal. Then, a vacuum is applied to the area of the skin inside the suction cup until the skin is displaced past a sensor located inside the probe. Accordingly, the more pressure that is required to displace the skin, the less elastic the skin is.

diabetic rats = experiment: Skin elasticity/muscle strength measurement on alert, restrained rats; type: in vivo; settings: preliminary data
Experimental: FIG. 15 is graphic illustration of the effects of DYN 12 (3-O-methylsorbitollysine) treatment on skin elasticity. Diabetic or normal rats were treated with DYN 12 (50 mg/kg daily) or saline for eight weeks and then subjected to skin elasticity tests. The four groups used included diabetic controls (saline injection; solid black bar), diabetics treated with DYN 12 (open bar), normal animal controls (saline injections; stippled bar), and normal animals treated with DYN 12 (cross-hatched bar). Data are expressed in kilopascals (kPA) and are shown as averages of the results obtained with each particular group of test subjects. Measurements were taken on the hind leg of the test subjects and were taken on an alert animal restrained by a technician.
Skin elasticity measurements were also taken on the test subjects as described above, but without sedating the test animals before measurement. FIG. 15 illustrates skin elasticity measurements taken on the hind leg of the test subjects while the subjects were alert and being restrained by a technician.
In these experiments, the animals were fiercely fighting restraint and the results are different.

3DG [4] = settings: Kappler et al., 2002; cited from earlier work
[5] = system: kinase activity in the kidney cortex; experiment: Radioactive assay of FL3P production from FL and ATP; type: biochemical, pig; settings: 10 mM FL, 10 mM γ33P-ATP, 30 minutes at 37° C., pH 7.5
Experimental: A 3 g sample of fresh pig kidney cortex was homogenized in 9 ml of 50 mM Tris.HCl containing 150 mM KCl, 5 mM DTT, 15 mM MgCl2, pH 7.5. This was centrifuged at 10,000 g for 30 minutes, and then the supernatant was centrifuged at 100,000 g for 60 minutes. Ammonium sulfate was added to 60% saturation. After 1 hour at 4° C. the precipitate was collected by centrifugation and dissolved in 5 ml. of original buffer. A 2 ml aliquot of this solution was incubated with 10 mM ATP and 10 mM of FL (prepared as in Example 1, above) for 2 hours at 37° C. The reaction was quenched with 300 μl of perchloric acid, centrifuged to remove protein, and desalted on a column of Sephadex G 10 (5×10 cm). ^31P NMR analysis of the reaction mixture detected formation of FL3P.
Based on the proof of kinase activity thus obtained, a radioactive assay was developed. This assay was designed to take advantage of the binding to Dow-50 cation exchange resin by FL3P. This characteristic of FL3P was discovered during efforts to isolate it. […] A 0.5 ml volume of supernatant was pipetted into 10 ml of Ecoscint A and counted. […] The relationship between rates of FL3P production and enzyme concentration was determined using triplicate determinations with 1, 2, and 4 mg of protein for 30 minutes at 37° C. Blanks run concurrently without FL were subtracted and the data recorded. […]

amadorase = experiment: Amadorase-dependent production of 3DG in vitro; type: biochemical; settings: FL 2.6 mM, after 24 hours
[6] = design: species or system human; settings: in vivo
Experimental: 260 g of casein, 120 g of glucose and 720 ml of water were mixed to give a homogeneous mixture. This mixture was transferred to a metal plate and heated at 65° C. for 68 hours. The resulting cake was then pulverized to a coarse powder.
Volunteers spent two days on a fructoselysine-free diet and then consumed 22.5 g of the food product prepared as described herein, thus effectively receiving a 2 gram dose of fructoselysine. Urine was collected at 2 hour intervals for 14 hours and a final collection was made at 24 hours.
FL was measured by HPLC with a Waters 996 diode Array using a Waters C18 Free Amino Acid column at 46° C. and a gradient elution system of acetonitrile-methyl alcohol-water (45:15:40) into acetonitrile-sodium acetate-water (6:2:92) at 1 ml/min. Quantitation employed an internal standard of meglumine.
3DF was measured by HPLC after deionization of the sample. Analyses were performed on a Dionex DX-500 HPLC system employing a PA1 column (Dionex) and eluting with 32 mM sodium hydroxide at 1 ml/min. Quantitation was performed from standard curves obtained daily with synthetic 3DF.
3DG was measured by GC-MS after deionization of the sample. 3DG was derivatized with a 10-fold excess of diaminonaphthalene in PBS. […] Quantitation of 3DG employed selected ion monitoring using an internal standard of U-13C-3DG.

mouse mesangial cells = experiment: Type IV collagen production in kidney cells in vitro; type: cell-based
Experimental: Type IV collagen production was measured in mouse mesangial cells. Controls (grown with […]) produced 300 ng of Type IV collagen per 10,000 cells, whereas fructoselysine treated cells (5 or 10 mM fructoselysine with 10 mM glucose) produced 560 and 1100 ng/10,000 cells.

3-deoxyglucosone = experiment: Reduction of urinary and plasma 3-deoxyglucosone in rats after intraperitoneal injection; type: in vivo; settings: 10 μmols intraperitoneal, plasma at end of three hours vs before
Experimental: Urine was collected from six rats for three hours. A plasma sample was also obtained. The animals were then given 10 μmols of either sorbitollysine, mannitollysine, or galactitollysine by intraperitoneal injection. Urine was collected for another three hours, and a plasma sample obtained at the end of the three hours.
a. 3-deoxyglucosone was measured in the samples, as described in Example 5, below, and variable volumes were normalized to creatinine. The average reduction of urinary 3-deoxyglucosone was 50% by sorbitollysine, 35% by mannitollysine and 35% by galactitollysine. Plasma 3-deoxyglucosone was reduced 40% by sorbitollysine, 58% by mannitollysine and 50% by galactitollysine.
Three rats were treated as in b), immediately above, except meglumine (100 μmols) was injected intraperitoneally instead of the above-mentioned lysine derivatives. Three hours after the injection the average 3-deoxyglucosone concentrations in the urine were decreased 42%.
3DG was measured by GC-MS after deionization of the sample. 3DG was derivatized with a 10-fold excess of diaminonaphthalene in PBS. Ethyl acetate extraction gave a salt free fraction which was converted to the trimethyl silyl ethers with Tri-Sil (Pierce). Analysis was performed on a Hewlett-Packard 5890 selected ion monitoring GC-MS system. GC was performed on a fused silica capillary column (DB-5.25 mx.25 mm) using the following temperature program: injector port 250° C., initial column temperature 150° C. which is held for 1 minute, then increased to 290° C. at 16° C./minute and held for 15 minutes. Quantitation of 3DG employed selected ion monitoring using an internal standard of U-13C-3DG.

3DG [7] = settings: disclosed in WO 98/33492; cited from earlier work

T1 sequence (P02453 162-1217 limits assumed): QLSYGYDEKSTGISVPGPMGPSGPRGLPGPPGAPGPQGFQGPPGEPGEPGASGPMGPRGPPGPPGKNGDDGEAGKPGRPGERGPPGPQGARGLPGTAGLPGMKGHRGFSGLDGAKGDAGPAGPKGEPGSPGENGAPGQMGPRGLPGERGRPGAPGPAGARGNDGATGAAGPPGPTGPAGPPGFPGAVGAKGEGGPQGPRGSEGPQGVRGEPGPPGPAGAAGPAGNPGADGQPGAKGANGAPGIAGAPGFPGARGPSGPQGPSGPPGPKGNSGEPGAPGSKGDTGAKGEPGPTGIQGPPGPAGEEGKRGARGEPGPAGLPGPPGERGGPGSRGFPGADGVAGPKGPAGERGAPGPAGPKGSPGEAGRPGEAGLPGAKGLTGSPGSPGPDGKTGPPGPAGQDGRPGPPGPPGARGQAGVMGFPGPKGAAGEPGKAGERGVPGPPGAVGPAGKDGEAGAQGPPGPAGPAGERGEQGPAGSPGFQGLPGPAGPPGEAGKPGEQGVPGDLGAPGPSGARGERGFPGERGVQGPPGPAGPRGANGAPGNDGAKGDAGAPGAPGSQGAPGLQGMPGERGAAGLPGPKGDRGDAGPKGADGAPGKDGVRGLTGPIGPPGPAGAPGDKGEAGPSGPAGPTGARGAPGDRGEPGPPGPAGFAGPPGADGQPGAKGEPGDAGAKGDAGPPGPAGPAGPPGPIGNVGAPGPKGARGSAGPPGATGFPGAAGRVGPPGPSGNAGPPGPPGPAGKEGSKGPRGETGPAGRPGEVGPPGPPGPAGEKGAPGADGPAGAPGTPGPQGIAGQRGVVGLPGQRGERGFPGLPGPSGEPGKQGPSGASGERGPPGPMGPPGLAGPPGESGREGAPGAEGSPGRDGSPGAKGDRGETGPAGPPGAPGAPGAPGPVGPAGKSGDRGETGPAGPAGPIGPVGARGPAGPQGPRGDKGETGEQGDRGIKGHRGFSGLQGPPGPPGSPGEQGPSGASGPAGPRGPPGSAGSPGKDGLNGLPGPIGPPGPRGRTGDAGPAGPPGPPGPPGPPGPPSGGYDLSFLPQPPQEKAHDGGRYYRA
T1 sequence (P02465 80-1117 limits assumed): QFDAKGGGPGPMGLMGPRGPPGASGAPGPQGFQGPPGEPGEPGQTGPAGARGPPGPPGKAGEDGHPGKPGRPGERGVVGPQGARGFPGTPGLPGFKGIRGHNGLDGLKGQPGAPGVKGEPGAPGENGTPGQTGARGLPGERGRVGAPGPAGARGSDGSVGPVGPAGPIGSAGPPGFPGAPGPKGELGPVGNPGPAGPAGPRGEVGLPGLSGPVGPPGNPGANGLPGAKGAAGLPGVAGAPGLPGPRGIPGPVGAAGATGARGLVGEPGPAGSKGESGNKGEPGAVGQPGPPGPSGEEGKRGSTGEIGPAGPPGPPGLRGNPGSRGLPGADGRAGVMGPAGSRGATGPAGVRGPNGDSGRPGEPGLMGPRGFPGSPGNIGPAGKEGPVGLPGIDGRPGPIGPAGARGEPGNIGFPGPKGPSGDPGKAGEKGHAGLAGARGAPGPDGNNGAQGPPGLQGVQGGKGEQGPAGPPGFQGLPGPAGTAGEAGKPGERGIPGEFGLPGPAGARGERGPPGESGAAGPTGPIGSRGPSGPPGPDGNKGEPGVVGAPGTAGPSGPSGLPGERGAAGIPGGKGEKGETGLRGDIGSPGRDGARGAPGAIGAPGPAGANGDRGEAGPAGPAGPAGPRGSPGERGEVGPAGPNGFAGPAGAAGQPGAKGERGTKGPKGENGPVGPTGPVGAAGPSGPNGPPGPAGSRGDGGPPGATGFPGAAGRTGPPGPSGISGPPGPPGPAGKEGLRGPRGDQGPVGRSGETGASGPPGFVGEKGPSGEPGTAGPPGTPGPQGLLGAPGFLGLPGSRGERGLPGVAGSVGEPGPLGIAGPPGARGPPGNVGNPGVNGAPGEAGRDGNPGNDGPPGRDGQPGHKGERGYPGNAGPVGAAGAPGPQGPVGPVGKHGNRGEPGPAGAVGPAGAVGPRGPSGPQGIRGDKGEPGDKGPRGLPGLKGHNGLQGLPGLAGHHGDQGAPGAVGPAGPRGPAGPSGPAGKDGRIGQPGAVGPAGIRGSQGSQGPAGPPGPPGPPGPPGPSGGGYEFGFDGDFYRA

O=CC(=O)C[C@H](O)[C@H](O)CO [3DG, 3-deoxyglucosone, reference compound]
collagen crosslinking (migration of collagen on gel) ([1]; collagen I with 5 mM 3DG): migrate as if it had a higher molecular weight

COC(C(O)CNCCCCC(N)C(=O)O)C(O)C(O)CO (centres unmarked) [DYN 12, 3-O-methylsorbitollysine]
plasma 3DG levels (3DG [2]; Diabetic rats): 0.44 ± 0.10 µM | plasma 3DG levels (3DG [2]; Non-diabetic rats): 0.13 ± 0.02 µM | only tissue extract found to contain the compound ([3]; brain, heart, muscle, sciatic nerve, spleen, pancreas, liver, kidney examined 3 hours after i.p. injection): kidney | total 3OMeSL recovered ([3]; individual rats, urine plus kidneys, 13500 nmols injected, listed as 3OMeSL, in nmol): 12355 and 5235 and 13011 and 8257 and 7151 and 7193 | % 3OMeSL recovered ([3]; individual rats, urine plus kidneys, of injected dose, listed as 3OMeSL): 91.5% and 38.8% and 96.4% and 61.2% and 53.0% and 53.3% | elasticity value in treated diabetic rats compared with non-diabetic rats treated with saline (STZ-diabetic rats): not statistically different | muscle strength measured while alert, vs diabetic rats not so treated (diabetic rats): stronger muscle strength | 3DG levels in the plasma of diabetic and non-diabetic animals (3DG [4]): reduces 3DG levels

NC(CCCCNCC(=O)C(O)C(O)C(O)CO)C(=O)O (centres unmarked) [FL, 1-deoxy-1-(ε-aminolysine)-fructose]
approximate FL3P synthesis rate [5]: ~20 nmols/hr/mg protein | 3DG (amadorase; Reaction 1: Amadorase +, ATP +): 1.58 mM | FL3P (amadorase; Reaction 1: Amadorase +, ATP +): 0.2 mM | 3DG (amadorase; Reaction 2: Amadorase +, ATP −): 0.08 mM | FL3P (amadorase; Reaction 2: Amadorase +, ATP −): 0 mM | 3DG (amadorase; Reaction 3: Amadorase −, ATP +): 0.09 mM | FL3P (amadorase; Reaction 3: Amadorase −, ATP +): 0 mM | 3DG (amadorase; Reaction 4: Amadorase −, ATP −): 0.08 mM | FL3P (amadorase; Reaction 4: Amadorase −, ATP −): 0 mM | time of peak urinary 3DF excretion after the bolus [6]: about 4 hours | Type IV collagen produced (mouse mesangial cells; 5 mM fructoselysine with 10 mM glucose): 560 ng/10,000 cells | Type IV collagen produced (mouse mesangial cells; 10 mM fructoselysine with 10 mM glucose): 1100 ng/10,000 cells

N=C(N)NCCC[C@H](N)C(=O)O [arginine]
inhibition of 3DG induced collagen crosslinking (high molecular weight bands on gel) ([1]; collagen I with 5 mM 3DG plus 10 mM arginine): fewer high molecular bands

N[C@@H](CCCCNC[C@H](O)[C@@H](O)[C@@H](O)[C@H](O)CO)C(=O)O [galactitollysine]
Plasma 3-deoxyglucosone reduced (3-deoxyglucosone): 50% | urinary or plasma 3DG (3DG [7]): can be reduced

N[C@@H](CCCCNC[C@@H](O)[C@@H](O)[C@H](O)[C@H](O)CO)C(=O)O [mannitollysine]
Plasma 3-deoxyglucosone reduced (3-deoxyglucosone): 58% | urinary or plasma 3DG (3DG [7]): can be reduced

CNC[C@H](O)[C@@H](O)[C@H](O)[C@H](O)CO [meglumine, reference compound]
urinary or plasma 3DG (3DG [7]): can be reduced

N[C@@H](CCCCNC[C@H](O)[C@@H](O)[C@H](O)[C@H](O)CO)C(=O)O [sorbitollysine]
Plasma 3-deoxyglucosone reduced (3-deoxyglucosone): 40% | urinary or plasma 3DG (3DG [7]): can be reduced
